Measurements: PMC12040169 (PLOS Biology, 2025)

test: in vitro; conditions: human, hela cells

| Structure (SMILES) | viability at 28.5 h, 10 µM [%] |
| --- | --- |
| O=C(NCCc1ccccc1)c1ccc(N2CCN(C(=O)c3ccccc3C(F)(F)F)CC2)nn1 [CBK153212] | 83.2 |

same assay, conditions: human, hela cells, % viability

| Structure (SMILES) | viability at 28.5 h, 10 µM [%] |
| --- | --- |
| CC(C)c1ccc(/C=C/C(=O)NCCN2CCOCC2)cc1 [CBK149631] | 92.6 |
| CC(C)c1ccc(/C=C/C(=O)NCc2ccc(C#N)cc2)cc1 [CBK149642] | 91 |
| CC(C)c1ccc(/C=C/C(=O)N[C@H]2CC[C@H](O)CC2)cc1 [CBK149644] | 106 |
| CC(C)c1ccc(/C=C/C(=O)NCCC(N)=O)cc1 [CBK149646] | 81.9 |
| CC(C)S(=O)(=O)N1CCC(n2c(=O)[nH]c3ccccc32)CC1 [CBK149693] | 101 |
| CC(=O)Nc1ccc(S(=O)(=O)N2CCC(n3c(=O)[nH]c4ccccc43)CC2)cc1 [CBK149696] | 92.3 |
| Cc1cc(C(=O)N2CCC(n3c(=O)[nH]c4ccccc43)CC2)no1 [CBK149714] | 103 |
| CCc1c(C)nc2ccccc2c1SCCC(=O)N(C)C [CBK149718T] | 99.9 |
| CC1CCN(Cc2ccc(-c3nnn(CC(=O)NCc4ccc(C(F)(F)F)nc4)n3)cc2)CC1 [CBK149721T] | 112 |
| CC1CCN(Cc2ccc(-c3nnn(CC(=O)NCc4ccc(C(F)(F)F)cn4)n3)cc2)CC1 [CBK149722T] | 104 |
| CNc1ccc2cccc(OCCO)c2n1 [CBK149727] | 95.6 |
| O=c1ccc2cccc(OCCO)c2o1 [CBK149730] | 105 |
| CN(C)C(=O)c1ccc(-c2ccc3c(c2)COC(C2CCN(C(=O)Cc4ccc(C#N)cc4)CC2)O3)cc1 (stereo not shown) [CBK149760] | 107 |
| CN(C)C(=O)c1ccc(-c2ccc3c(c2)COC(C2CCN(C(=O)CC(C)(C)c4ccccc4)CC2)O3)cc1 (stereo not shown) [CBK149765] | 107 |
| COc1cccc2cc(C(=O)NCC3COc4ccccc4O3)oc12 (stereo not shown) [CBK149791] | 109 |
| COc1cccc2cc(C(=O)NCCCSC)oc12 [CBK149793] | 99.6 |
| COc1cccc2cc(C(=O)NCc3cccs3)oc12 [CBK149799] | 67.9 |
| COc1cccc2cc(C(=O)NCc3cccc4ccccc34)oc12 [CBK149800] | 78.6 |
| COc1cccc2cc(C(=O)NC3CC3)oc12 [CBK149813] | 97.8 |
| CCOC(=O)CCNC(=O)c1cc2cccc(OC)c2o1 [CBK149816] | 88.1 |
| COc1cccc2cc(C(=O)Nc3ccc4[nH]ccc4c3)oc12 [CBK149819] | 91.5 |
| COc1ccc(OCCNC(=O)C2(c3ccc(OC)cc3)CC2)cc1 [CBK149821] | 91.8 |

| Structure (SMILES) | viability at 28.5 h, 10 µM [%] |
| --- | --- |
| COc1ccc(C2(C(=O)NCCCN3CCN(C)CC3)CC2)cc1 [CBK149822] | 101 |
| COc1ccc(C2(C(=O)NCc3ccc(OC(F)(F)F)cc3)CC2)cc1 [CBK149823] | 117 |
| COc1ccc(C2(C(=O)NCc3ccc(Cl)c(Cl)c3)CC2)cc1 [CBK149827] | 98.7 |
| COc1ccc(C2(C(=O)NCc3cccs3)CC2)cc1 [CBK149831] | 106 |
| COc1ccc(C2(C(=O)NCCc3ccc(O)cc3)CC2)cc1 [CBK149833] | 101 |
| O=C(Nc1ccc(C(F)(F)F)cc1)N1CCC(n2c(=O)[nH]c3ccccc32)CC1 [CBK149847] | 83.1 |
| O=C(Nc1ccc(Cl)cc1)N1CCC(n2c(=O)[nH]c3ccccc32)CC1 [CBK149850] | 98.5 |
| COc1cc(OC)c(NC(=O)N2CCC(n3c(=O)[nH]c4ccccc43)CC2)cc1Cl [CBK149851] | 91.4 |
| O=C(Nc1cccc(Cl)c1Cl)N1CCC(n2c(=O)[nH]c3ccccc32)CC1 [CBK149856] | 94.6 |
| CCOC(=O)N1CCC(n2c(=O)[nH]c3ccccc32)CC1 [CBK149867] | 79.6 |
| COc1ccc(OC(=O)N2CCC(n3c(=O)[nH]c4ccccc43)CC2)cc1 [CBK149868] | 102 |
| CC(=O)NCc1cccc(-c2cc(C(=O)Nc3ccc4c(c3)OCCO4)cnc2O)c1 [CBK149871T] | 91.6 |
| c1ccc(CC(Cc2nc3ccccc3[nH]2)c2nc3ccccc3[nH]2)cc1 (stereo not shown) [CBK150452] | 107 |
| O=c1nc(-c2ccccc2Cl)oc2ccccc12 [CBK152263] | 89.9 |
| O=c1nc(-c2ccco2)oc2ccccc12 [CBK152421] | 112 |
| Cc1cccc2c(=O)nc(-c3ccccc3Cl)oc12 [CBK152422] | 106 |
| O=C(Nc1sc2c(c1C(=O)O)CCC2)c1cccs1 [CBK152437] | 95.2 |
| COc1cccc(-c2ccc3c(c2)[nH]c(=O)n3C2CCN(C(=O)c3ccc(C)c(OC)c3)CC2)c1 [CBK153141] | 102 |
| Cc1ccc(CNC(=O)Cn2nnc(-c3ccc(CNCC(F)(F)F)cc3)n2)cc1 [CBK153204T] | 116 |
| O=C(NCC1CC1)c1ccc(N2CCN(C(=O)c3ccccc3C(F)(F)F)CC2)nn1 [CBK153220] | 111 |
| O=C1NC(=O)C(CC(=O)N2CCC3(CCCNC3)C2)N1 (stereo not shown) [CBK153232C] | 79.2 |
| O=C(c1cncnc1)N1CCC2(CCCNC2)C1 (stereo not shown) [CBK153237C] | 89.7 |

| Structure (SMILES) | viability at 28.5 h, 10 µM [%] |
| --- | --- |
| COC(=O)CCC(=O)Nc1snnc1-c1ccc(Cl)cc1 [CBK153241] | 99.3 |
| O=C(CC1CCCCC1)Nc1snnc1-c1ccc(Cl)cc1 [CBK153245] | 114 |
| O=C(Nc1snnc1-c1ccc(Cl)cc1)c1ccc(OC(F)(F)F)cc1 [CBK153247] | 70.5 |
| O=C(OCc1ccccc1)N1CCC(C2OCc3cc(-c4ccc(C(=O)N5CCCC5)cc4)ccc3O2)CC1 (stereo not shown) [CBK153260] | 108 |
| O=C(OCc1ccccc1)N1CCC(C2OCc3cc(-c4ccc(C(=O)N5CCCCC5)cc4)ccc3O2)CC1 (stereo not shown) [CBK153262] | 93.8 |
| O=S(=O)(c1ccccc1)N1Cc2cccc3[nH]cc(c23)C1 [CBK153275] | 102 |
| CC1(C)CC(=O)C=C(C(=O)NCc2c(F)cccc2F)O1 [CBK153287] | 91.2 |
| CSCCCNC(=O)c1ccc2nc[nH]c2c1 [CBK153314] | 116 |
| O=C(NCc1c(F)cccc1F)c1ccc2nc[nH]c2c1 [CBK153315] | 83 |
| O=C(NCc1cccs1)c1ccc2nc[nH]c2c1 [CBK153320] | 92.1 |
| Cc1csc(C(C)NC(=O)c2cccnc2NCc2ccc3c(c2)OCO3)n1 (stereo not shown) [CBK153425] | 108 |
| O=C(NCc1ccc([N+](=O)[O-])cc1)c1cccnc1NCc1ccc2c(c1)OCO2 [CBK153436] | 98.6 |
| CCOC(=O)CCCCSc1c(CC)c(C)nc2ccccc12 [CBK153458T] | 96 |
| CCc1c(C)nc2ccccc2c1SC[C@H](NC(C)=O)C(=O)O [CBK153459T] | 99.2 |
| Cc1ccc(S(=O)(=O)Nc2ccc3[nH]ccc3c2)cc1 [CBK153519] | 92.5 |
| O=S(=O)(Nc1cccc2[nH]ccc12)c1ccc(F)cc1 [CBK153522] | 60.9 |
| O=S(=O)(Nc1cccc2[nH]ccc12)c1sc(Cl)cc1Br [CBK153552] | 69 |
| O=S(=O)(Nc1cccc2cc[nH]c12)c1cc(Cl)ccc1Cl [CBK153581] | 84.6 |
| O=S(=O)(CC(F)(F)F)Nc1cccc2cc[nH]c12 [CBK153585] | 99.5 |
| O=S(=O)(Nc1cccc2cc[nH]c12)c1ccc(F)cc1F [CBK153586] | 85.3 |
| N#CCCCN1CCC(Oc2nccnc2OCc2c(F)cccc2Cl)CC1 [CBK153630] | 102 |
| N#CCCCN1CCC(Oc2nccnc2OCc2ccccc2C(F)(F)F)CC1 [CBK153636] | 102 |

| Structure (SMILES) | viability at 28.5 h, 10 µM [%] |
| --- | --- |
| N#CCCCN1CCC(Oc2nccnc2OCc2cccc(C(F)(F)F)c2F)CC1 [CBK153646] | 100 |
| CN(C)C(=O)c1ccc(Cn2ccnc(N3CCC(Sc4ccccc4)CC3)c2=O)cc1 [CBK153651] | 107 |
| CN(C)C(=O)Cc1ccc(Cn2ccnc(N3CCC(Sc4ccccc4)CC3)c2=O)cc1 [CBK153652] | 112 |
| N#Cc1ccc(Cn2ccnc(N3CCC(Sc4ccccc4)CC3)c2=O)cc1 [CBK153653] | 98.2 |
| O=c1c(N2CCC(Sc3ccccc3)CC2)nccn1Cc1ccc([N+](=O)[O-])cc1 [CBK153654] | 108 |
| O=c1c(N2CCC(Sc3ccccc3)CC2)nccn1Cc1ccc(-n2cncn2)cc1 [CBK153655] | 90.9 |
| CCOC(=O)c1c(C)nc2ccccc2c1O [CBK153666] | 110 |
| O=C(c1cnoc1-c1ccc(F)cc1)N1CCCC1 [CBK153707] | 97.9 |
| O=C(NCc1cccc(C(F)(F)F)c1)c1cnoc1-c1ccc(Br)cc1 [CBK153718] | 96.9 |
| CS(=O)(=O)c1ccc(Cn2ccnc(N3CCN(C(=O)Cc4cccs4)CC3)c2=O)cc1 [CBK153773] | 89.9 |
| CS(=O)(=O)c1ccc(Cn2ccnc(N3CCN(C(=O)c4ccc5occc5c4)CC3)c2=O)cc1 [CBK153777] | 90.8 |
| COC(=O)c1ccc(CN2CCC(Oc3nccnc3OCc3ccc(Cl)c(Cl)c3)CC2)o1 [CBK153782] | 84.2 |
| O=C(CN1CCC(Oc2nccnc2OCc2ccc(Cl)c(Cl)c2)CC1)Nc1ccccc1 [CBK153783] | 110 |
| Cc1nc(CN2CCC(Oc3nccnc3OCc3ccc(Cl)c(Cl)c3)CC2)cs1 [CBK153787] | 95.9 |
| Clc1ccc(COc2nccnc2OC2CCN(Cc3ccncc3)CC2)cc1Cl [CBK153792] | 107 |
| O=C(NCc1cccs1)c1cnoc1-c1ccc([N+](=O)[O-])cc1 [CBK153845] | 82.9 |
| O=C(OCc1ccccc1)N1CCC(c2nc3ccc(Br)cc3[nH]2)CC1 [CBK153849] | 93.7 |
| CCc1ccc(CNC(=O)Cn2nnc(-c3ccc(CN4CCC(C)CC4)cn3)n2)cc1 [CBK153928C] | 93.6 |
| CCOc1ccc(OC(=O)C2CCN(C(=O)CC(C)C)CC2)cc1 [CBK154228] | 95.3 |
| O=S(=O)(CC(F)(F)F)Nc1cccc(-c2nnn[nH]2)c1 [CBK154272] | 83.9 |
| O=S(=O)(Nc1ccc(-c2nnn[nH]2)cc1)c1cc(Cl)c(Cl)s1 [CBK154745] | 116 |
